Active and inactive are the calls of the source. The rule behind the calls is not given here.
What was measured:
[1] = system: Blood; assay: Inhibition of LPS-induced TNFalpha production in human whole blood; assay type: functional, tissue-based
[2] = system: THP-1; assay: Inhibition of LPS-induced TNFalpha production in THP1 cells; assay type: functional, cell-based; conditions: Homo sapiens
[3] = system: Mus musculus; assay: Inhibition of LPS-induced TNFalpha production in mouse at 10 mg/kg after 1 hr; assay type: functional
[4] = system: Mus musculus; assay: Inhibition of LPS-induced TNFalpha production in mouse at 3 mg/kg after 1 hr; assay type: functional
[5] = species on record: Homo sapiens; assay: Protein binding in human plasma by equilibrium dialysis; conditions: read-out: PPB
[6] = Lipophilicity, log D at pH 7.4; assay type: physicochemical; conditions: buffer
[7] = target: Proto-oncogene tyrosine-protein kinase Src (Homo sapiens, UniProt P12931); assay: Inhibition of Src
Sequence of Proto-oncogene tyrosine-protein kinase Src (P12931 2-536 limits assumed): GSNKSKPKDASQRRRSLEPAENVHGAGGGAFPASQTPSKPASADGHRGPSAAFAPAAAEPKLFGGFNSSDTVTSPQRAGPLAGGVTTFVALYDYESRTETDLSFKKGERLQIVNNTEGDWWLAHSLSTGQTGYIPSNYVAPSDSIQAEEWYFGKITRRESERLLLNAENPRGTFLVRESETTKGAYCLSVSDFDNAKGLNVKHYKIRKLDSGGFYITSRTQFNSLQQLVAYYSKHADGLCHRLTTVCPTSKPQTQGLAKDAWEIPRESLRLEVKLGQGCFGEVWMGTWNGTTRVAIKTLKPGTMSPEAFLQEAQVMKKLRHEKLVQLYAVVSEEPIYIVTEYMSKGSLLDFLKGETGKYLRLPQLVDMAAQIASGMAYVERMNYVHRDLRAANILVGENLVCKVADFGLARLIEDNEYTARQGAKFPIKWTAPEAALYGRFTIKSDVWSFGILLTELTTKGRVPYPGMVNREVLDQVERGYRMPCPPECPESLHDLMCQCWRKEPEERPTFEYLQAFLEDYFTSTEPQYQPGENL

[8] = target: Tyrosine-protein kinase Lyn (Homo sapiens, UniProt P07948); assay: Inhibition of Lyn
Sequence of Tyrosine-protein kinase Lyn (P07948 whole entry): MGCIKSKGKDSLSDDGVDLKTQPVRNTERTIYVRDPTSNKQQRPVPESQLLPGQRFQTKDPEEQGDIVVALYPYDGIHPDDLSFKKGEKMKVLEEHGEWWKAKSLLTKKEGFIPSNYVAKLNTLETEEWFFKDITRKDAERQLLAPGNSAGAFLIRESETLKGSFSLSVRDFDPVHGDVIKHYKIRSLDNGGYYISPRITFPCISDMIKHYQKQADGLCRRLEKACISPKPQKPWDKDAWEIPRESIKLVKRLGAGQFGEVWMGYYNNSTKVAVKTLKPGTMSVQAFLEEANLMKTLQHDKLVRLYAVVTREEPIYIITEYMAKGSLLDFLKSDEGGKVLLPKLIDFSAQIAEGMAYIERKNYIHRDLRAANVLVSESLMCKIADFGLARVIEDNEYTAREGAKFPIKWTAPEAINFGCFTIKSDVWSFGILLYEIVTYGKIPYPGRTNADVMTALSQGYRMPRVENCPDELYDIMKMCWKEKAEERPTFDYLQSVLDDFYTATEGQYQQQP

[9] = target: Tyrosine-protein kinase ABL1 (Homo sapiens, UniProt P00519); assay: Inhibition of Abl
Sequence of Tyrosine-protein kinase ABL1 (P00519 whole entry): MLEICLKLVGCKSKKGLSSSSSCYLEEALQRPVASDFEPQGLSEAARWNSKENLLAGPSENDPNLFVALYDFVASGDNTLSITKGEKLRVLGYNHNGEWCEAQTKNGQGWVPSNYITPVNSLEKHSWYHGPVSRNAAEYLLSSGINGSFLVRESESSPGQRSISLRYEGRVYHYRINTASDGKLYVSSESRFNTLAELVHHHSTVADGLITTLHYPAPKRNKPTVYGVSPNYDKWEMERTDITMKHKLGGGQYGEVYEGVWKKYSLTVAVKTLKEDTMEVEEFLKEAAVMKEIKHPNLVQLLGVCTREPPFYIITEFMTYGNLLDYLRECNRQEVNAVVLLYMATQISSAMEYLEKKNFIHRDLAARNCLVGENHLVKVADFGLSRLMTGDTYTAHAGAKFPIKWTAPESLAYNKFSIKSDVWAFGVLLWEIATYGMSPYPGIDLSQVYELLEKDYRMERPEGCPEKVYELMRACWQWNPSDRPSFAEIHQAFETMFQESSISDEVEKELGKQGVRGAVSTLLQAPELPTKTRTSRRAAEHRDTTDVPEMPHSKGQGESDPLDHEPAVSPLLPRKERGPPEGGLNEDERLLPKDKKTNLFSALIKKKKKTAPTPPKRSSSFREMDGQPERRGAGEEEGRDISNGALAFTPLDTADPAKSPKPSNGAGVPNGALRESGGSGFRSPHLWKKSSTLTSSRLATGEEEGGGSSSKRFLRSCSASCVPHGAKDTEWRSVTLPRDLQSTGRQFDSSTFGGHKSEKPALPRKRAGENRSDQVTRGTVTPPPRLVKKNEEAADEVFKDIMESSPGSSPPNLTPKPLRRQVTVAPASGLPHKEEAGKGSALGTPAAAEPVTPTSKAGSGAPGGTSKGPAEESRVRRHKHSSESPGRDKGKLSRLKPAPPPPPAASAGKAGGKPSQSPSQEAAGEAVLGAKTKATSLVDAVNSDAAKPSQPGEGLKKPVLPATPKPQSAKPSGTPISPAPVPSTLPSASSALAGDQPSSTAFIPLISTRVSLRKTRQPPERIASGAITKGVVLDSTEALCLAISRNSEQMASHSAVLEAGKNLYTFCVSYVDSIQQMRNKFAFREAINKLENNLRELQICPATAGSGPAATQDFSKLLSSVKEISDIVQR

[10] = target: RAF proto-oncogene serine/threonine-protein kinase (Homo sapiens, UniProt P04049); assay: Inhibition of cRaf
Sequence of RAF proto-oncogene serine/threonine-protein kinase (P04049 whole entry): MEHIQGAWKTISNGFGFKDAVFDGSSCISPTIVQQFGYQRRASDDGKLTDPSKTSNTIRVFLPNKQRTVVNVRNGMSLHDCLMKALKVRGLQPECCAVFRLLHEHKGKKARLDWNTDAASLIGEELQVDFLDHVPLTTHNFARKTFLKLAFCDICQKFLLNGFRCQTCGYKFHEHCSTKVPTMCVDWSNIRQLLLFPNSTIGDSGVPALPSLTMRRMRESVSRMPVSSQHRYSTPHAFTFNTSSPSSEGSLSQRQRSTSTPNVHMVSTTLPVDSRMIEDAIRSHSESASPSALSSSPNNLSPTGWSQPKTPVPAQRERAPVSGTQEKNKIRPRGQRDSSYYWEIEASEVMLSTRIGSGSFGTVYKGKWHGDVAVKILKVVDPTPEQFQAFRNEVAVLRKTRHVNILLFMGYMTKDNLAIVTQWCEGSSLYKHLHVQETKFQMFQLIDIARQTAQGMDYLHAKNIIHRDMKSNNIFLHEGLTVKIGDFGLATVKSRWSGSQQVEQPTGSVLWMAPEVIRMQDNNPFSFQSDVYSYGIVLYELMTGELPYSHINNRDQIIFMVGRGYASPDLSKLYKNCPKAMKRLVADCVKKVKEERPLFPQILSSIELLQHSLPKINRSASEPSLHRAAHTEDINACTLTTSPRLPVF

[11] = target: Mitogen-activated protein kinase 9 (Homo sapiens, UniProt P45984); assay: Inhibition of Jnk2
Sequence of Mitogen-activated protein kinase 9 (P45984 whole entry): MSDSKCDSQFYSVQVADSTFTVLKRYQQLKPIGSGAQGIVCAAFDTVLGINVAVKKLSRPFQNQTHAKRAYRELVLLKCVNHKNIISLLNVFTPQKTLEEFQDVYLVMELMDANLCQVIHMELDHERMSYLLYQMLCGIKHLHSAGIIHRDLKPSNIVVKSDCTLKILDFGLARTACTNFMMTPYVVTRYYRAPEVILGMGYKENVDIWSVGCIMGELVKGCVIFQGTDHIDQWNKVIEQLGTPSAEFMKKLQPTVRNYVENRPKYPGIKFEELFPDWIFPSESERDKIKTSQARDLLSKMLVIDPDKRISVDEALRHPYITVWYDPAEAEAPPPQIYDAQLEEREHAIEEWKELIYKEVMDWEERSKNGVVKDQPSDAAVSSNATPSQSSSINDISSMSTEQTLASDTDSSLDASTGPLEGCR

Compound | IC50 [1] [nM] | IC50 [2] [nM] | also measured
Cc1ccc(-n2nc(C(C)(C)C)cc2NC(=O)Nc2ccc(-c3ccccc3)c3ccccc23)cc1 | > 15000 | 1430 | 
Cc1ccc(-n2nc(C(C)(C)C)cc2NC(=O)Nc2ccc(-c3ccc(N4CCOCC4)cc3)c3ccccc23)cc1 | > 15000 | 470 | 
Cc1ccc(-n2nc(C(C)(C)C)cc2NC(=O)Nc2cccc3ccccc23)cc1 | > 15000 | 320 | 
Cc1ccc(-n2nc(C(C)(C)C)cc2NC(=O)Nc2ccc(-c3ccc(CCN4CCOCC4)cc3)c3ccccc23)cc1 | 1700 | 56 | 
Cc1ccc(-n2nc(C(C)(C)C)cc2NC(=O)Nc2ccc(-c3ccc(CN4CCOCC4)nc3)c3ccccc23)cn1 | 200 | 11 | inhibition in vivo at 10 mg/kg [3]: 86%; inhibition in vivo at 3 mg/kg [4]: 50%
Cc1ccc(-n2nc(C(C)(C)C)cc2NC(=O)Nc2ccc(-c3ccco3)c3ccccc23)cc1 |  | 390 | 
Cc1ncc(-n2nc(C(C)(C)C)cc2NC(=O)Nc2ccc(-c3ccc(CN4CCOCC4)nc3)c3ccccc23)cn1 | 160 | 14 | fraction unbound [5]: < 0.03; inhibition in vivo at 10 mg/kg [3]: 95%; inhibition in vivo at 3 mg/kg [4]: 85%
Cc1ccc(-n2nc(C(C)(C)C)cc2NC(=O)Nc2ccc(-c3cccc(CN4CCOCC4)c3)c3ccccc23)cc1 | 3900 | 56 | 
Cn1cc(-n2nc(C(C)(C)C)cc2NC(=O)Nc2ccc(-c3ccc(CN4CCOCC4)nc3)c3ccccc23)cn1 | 90 | 11 | inhibition in vivo at 3 mg/kg [4]: 73%
Cc1ccc(-n2nc(C(C)(C)C)cc2NC(=O)Nc2ccc(-c3ccc(CN4CCOCC4)cc3)c3ccccc23)cc1 | 1100 | 36 | 
Cc1ccc(-n2nc(C(C)(C)C)cc2NC(=O)Nc2ccc(-c3ccc(CN4CCOCC4)cn3)c3ccccc23)cc1 | 590 | 26 | logD [6]: 5.2
Cc1ccc(-n2nc(C(C)(C)C)cc2NC(=O)Nc2ccc(-c3ccc(CN4CCOCC4)nc3)c3ccccc23)cc1 | 230 | 9 | IC50 [7]: 1000 nM; IC50 [8]: 1000 nM; inhibition in vivo at 10 mg/kg [3]: 74%; logD [6]: 5.2; Activity [4]: inactive; IC50 [9]: 1000 nM; IC50 [10]: 400 nM; IC50 [11]: 2 nM
Cc1ccc(-n2nc(C(C)(C)C)cc2NC(=O)Nc2ccc(-c3ccc(CN4CCN(C)CC4)cc3)c3ccccc23)cc1 | 3600 | 46 | 
Cc1ccc(-n2nc(C(C)(C)C)cc2NC(=O)Nc2ccc(-c3ccc(CN4CCOCC4)o3)c3ccccc23)cc1 | 6400 | 70 | 
Cc1ccc(-n2nc(C(C)(C)C)cc2NC(=O)Nc2ccc(-c3cccc(N4CCOCC4)c3)c3ccccc23)cc1 | > 15000 | 1350 | 
Cn1nc(C(C)(C)C)cc1NC(=O)Nc1ccc(-c2ccc(CN3CCOCC3)nc2)c2ccccc12 | 950 | 32 | Activity [3]: inactive
Cc1ccc(-n2nc(C(C)(C)C)cc2NC(=O)Nc2ccc(-c3ccc(CN(C)C)cc3)c3ccccc23)cc1 | 9200 | 104 | 
Cc1ccc(-n2nc(C(C)(C)C)cc2NC(=O)Nc2ccc(OCCN3CCOCC3)c3ccccc23)cc1 [DORAMAPIMOD] |  |  | inhibition in vivo at 10 mg/kg [3]: 63%; logD [6]: 4.3
